Laboratory results: patent publication US9371336B2, “Compounds for treating spinal muscular atrophy” (PTC Therapeutics Inc., priority 2012, dated 2016)

What was measured:
[1] = tested on: SMN2 full length and Δ7 mRNA; assay: Endogenous SMN2 mRNA end-point semi-quantitative RT-PCR splicing assay in cultured cells (GM03813); type: cell-based, human; details: Type 1 SMA patient fibroblasts GM03813, increasing concentrations, 24 hr, agarose gel (FIG. 5)
Method: The endpoint reverse transcription-PCR splicing assay is used to visualize and quantify the levels of the SMN2 full length and Δ7 mRNA in primary cells and cell lines containing the SMN2 gene treated with a test compound.
GM03813 SMA patient cells (5,000 cells/well) are seeded in 200 μL of cell culture medium (DMEM plus 10% FBS) in 96-well flat-bottom plates and the plate is immediately swirled to ensure proper dispersal of cells, forming an even monolayer of cells. Cells are allowed to attach for at least 4-6 hrs. Test compounds are serially diluted 3.16-fold in 100% DMSO to generate a 7-point concentration curve. A solution of test compound (1 μL, 200× in DMSO) is added to each test well and 1 μL DMSO is added to each control well. The plate is incubated for 24 hrs in a cell culture incubator (37° C., 5% CO2, 100% relative humidity). The cells are then lysed in Cells-To-Ct lysis buffer and the lysate is stored at 80° C.
SMN FL and Δ7 mRNA are identified using the following primers in Table 6. These primers hybridize to a nucleotide sequence in exon 6 (SMN Forward C, SEQ ID NO. 11) (nucleotide 43 to nucleotide 63) and exon 8 (SMN Reverse C, SEQ ID NO. 12) (nucleotide 51 to nucleotide 73) common to human SMN1 and SMN2 mRNA. Since the SMA patient cells used in Example 4 contain only the SMN2 gene, RT-PCR can visualize and quantify only SMN2 full-length and SMN2 Δ7 mRNA.
(§1) To synthesize cDNA, 5 μL of lysate, 4 μL of 5× iScript reaction mix, 1 μL of reverse transcriptase, and 10 μL of water are combined and incubated 5 min at 25° C. followed by 30 min at 42° C., followed by 5 min at 85° C. The cDNA solution is stored at −20° C.
To perform endpoint PCR, 5 μL of cDNA, 0.2 μL of 100 μM forward primer, 0.2 μL of 100 μM reverse primer, and 22.5 μL of polymerase super mix are combined in a 96 well semiskirted PCR plate. PCR is carried out at the following temperatures for the indicated time: Step 1: 94° C. (2 min), Step 2: 94° C. (30 sec), Step 3: 55° C. (30 sec), Step 4: 68° C. (1 min), then repeat Steps 2 to 4 for a total of 33 cycles, then hold at 4° C.
10 μL of each PCR sample is electrophoretically separated on a 2% agarose E-gel for 14 minutes stained with double-stranded DNA (dsDNA) staining reagents (e.g., ethidium bromide) and visualized using a gel imager.

[2] = tested on: human SMN1 minigene full length and Δ7 mRNA (SMN1-A); assay: Human SMN1 minigene mRNA end-point semi-quantitative RT-PCR splicing assay in cultured cells; type: cell-based; details: HEK293H cells transfected with SMN1-A minigene, increasing concentrations, 7 hours, agarose gel (FIG. 10)
Description: The RT-PCR assay is used to visualize and quantify the levels of the human SMN1 minigene full length and Δ7 mRNA in primary cells and cell lines expressing the human SMN1 minigene construct treated with a test compound.
Using the procedure for the preparation of the SMN2 minigene construct described in Biological Example 1, the SMN1 version of the minigene is generated by replacing the sixth nucleotide of exon 7 (a thymine residue) of the SMN2-A minigene construct to cytosine using site-directed mutagenesis. Thus, similar to the SMN2-A minigene construct, the SMN1 minigene construct has a single adenine residue inserted after nucleic residue 48 of exon 7. The SMN1 minigene construct is referred to as SMN1-A.
HEK293H cells (10,000 cells/well/199 μL) were transfected, using FuGENE-6 reagent, in a 96-well plate with 15 ng of the SMN1-A minigene reporter plasmid per well. Cells were incubated for 24 hours following transfection. Test compounds were serially diluted 3.16-fold in 100% DMSO to generate a 7-point concentration curve. A solution of test compound (1 μL, 200× in DMSO) was added to each test well. 1 μL DMSO was added to each control well. The plate was incubated for 7 hours in a cell culture incubator (37° C., 5% CO2, 100% relative humidity). The cells were then lysed in Cells-To-Ct lysis buffer and the lysates were stored at −80° C.
Two SMN spliced mRNA are generated from the SMN1 minigene. The term “SMN1 minigene FL” refers to the first spliced product containing exon 7, corresponding to full length SMN1 mRNA. The term “SMN1 minigene A7” refers to the second product lacking exon 7.
SMN1 minigene FL and SMN1 minigene Δ7 mRNA are amplified using the primers in Table 11. Primer SMN Forward C (SEQ ID NO. 11) hybridizes to a nucleotide sequence in exon 6 (nucleotide 43 to nucleotide 63), primer SMN Reverse A (SEQ ID NO. 2) hybridizes to a nucleotide sequence in the coding sequence of Firefly luciferase. The combination of these two oligonucleotides detects only SMN1 or SMN2 minigenes (RT-PCR) and will not detect endogenous SMN1 or SMN2 genes. Since the HEK293H cells used in Example 16 were transfected with only the human SMN1 minigene, RT-PCR can visualize and quantify only SMN1 minigene FL and SMN1 minigene Δ7 mRNA.
as §1
To perform endpoint PCR, 5 μL of cDNA, 0.2 μL of 100 μM forward primer, 0.2 μL of 100 μM reverse primer, and 22.5 μL of polymerase super mix are combined in a 96 well semiskirted PCR plate. PCR is carried out at the following temperatures for the indicated time: Step 1: 94° C. (2 min), Step 2: 94° C. […]

Cc1ccc2nc(-c3cc4ccc(N5CCN(C)CC5)nc4oc3=O)cn2c1 [Cpd 27, 3-(6-methylimidazo[1,2-a]pyridin-2-yl)-7-(4-methylpiperazin-1-yl)-2H-pyrano[2,3-b]pyridin-2-one]
SMN2 FL mRNA (gel band) [1]: progressively more SMN2 FL mRNA
SMN2 Δ7 mRNA (gel band) [1]: less SMN2 Δ7 mRNA
SMN1 minigene FL mRNA (gel band) [2]: progressively more SMN1 minigene FL mRNA
SMN1 minigene Δ7 mRNA (gel band) [2]: less SMN1 minigene Δ7 mRNA

CN1CCN(c2ccc3cc(-c4nc5c(Cl)cccc5s4)c(=O)oc3n2)CC1 [Cpd 5, 3-(4-chloro-1,3-benzothiazol-2-yl)-7-(4-methylpiperazin-1-yl)-2H-pyrano[2,3-b]pyridin-2-one]
SMN2 FL mRNA (gel band) [1]: progressively more SMN2 FL mRNA
SMN2 Δ7 mRNA (gel band) [1]: less SMN2 Δ7 mRNA
SMN1 minigene FL mRNA (gel band) [2]: progressively more SMN1 minigene FL mRNA
SMN1 minigene Δ7 mRNA (gel band) [2]: less SMN1 minigene Δ7 mRNA
